Reference: the NIST ThermoML archive (doi:10.1016/j.jct.2018.02.016)
Numbers after ± are expanded uncertainties.

Details: Gas chromatography

Compound | vapor or sublimation pressure (298.15 K, Metastable liquid) [kPa] | vapor or sublimation pressure (310 K, Metastable liquid) [kPa] | vapor or sublimation pressure (320 K, Metastable liquid) [kPa] | vapor or sublimation pressure (330 K, Metastable liquid) [kPa] | vapor or sublimation pressure (340 K, Metastable liquid) [kPa] | vapor or sublimation pressure (350 K, Metastable liquid) [kPa] | vapor or sublimation pressure (360 K, Metastable liquid) [kPa] | vapor or sublimation pressure (370 K, Metastable liquid) [kPa] | vapor or sublimation pressure (380 K, Metastable liquid) [kPa] | vapor or sublimation pressure (390 K, Metastable liquid) [kPa] | vapor or sublimation pressure (400 K, Metastable liquid) [kPa] | vapor or sublimation pressure (410 K, Metastable liquid) [kPa] | vapor or sublimation pressure (420 K, Metastable liquid) [kPa] | vapor or sublimation pressure (430 K, Metastable liquid) [kPa] | vapor or sublimation pressure (440 K, Metastable liquid) [kPa] | also measured
C1C2CC3CC1CC(C2)C3 [adamantane] |  |  |  |  |  |  |  |  |  |  |  |  |  |  |  | vapor or sublimation pressure (298.15 K, Liquid): 0.13 kPa; vapor or sublimation pressure (310 K, Liquid): 0.26 kPa; vapor or sublimation pressure (320 K, Liquid): 0.46 kPa; vapor or sublimation pressure (330 K, Liquid): 0.77 kPa; vapor or sublimation pressure (340 K, Liquid): 1.3 kPa; vapor or sublimation pressure (350 K, Liquid): 2 kPa; vapor or sublimation pressure (360 K, Liquid): 3.1 ± 1.4 kPa; vapor or sublimation pressure (370 K, Liquid): 4.6 ± 1.8 kPa; vapor or sublimation pressure (380 K, Liquid): 6.8 ± 2.3 kPa; vapor or sublimation pressure (390 K, Liquid): 9.8 ± 2.9 kPa; vapor or sublimation pressure (400 K, Liquid): 14 ± 3 kPa; vapor or sublimation pressure (410 K, Liquid): 19 ± 4 kPa; vapor or sublimation pressure (420 K, Liquid): 26 ± 5 kPa; vapor or sublimation pressure (430 K, Liquid): 35 ± 5 kPa; vapor or sublimation pressure (440 K, Liquid): 46 ± 6 kPa; vapor or sublimation pressure (545 K, Liquid): 460 ± 46 kPa; vapor or sublimation pressure (555 K, Liquid): 550 ± 55 kPa; vapor or sublimation pressure (565 K, Liquid): 650 ± 65 kPa; vapor or sublimation pressure (575 K, Liquid): 760 ± 76 kPa
C1C2CC3C4CC5CC(C14)C(C2)C3C5 [pentacyclo[7.3.1.1(4,12).0(2,7).0(6,11)]tetradecane] | 0.0016 | 0.0043 | 0.0091 | 0.018 | 0.036 | 0.066 | 0.12 | 0.2 | 0.34 | 0.55 | 0.87 ± 0.42 | 1.3 ± 0.61 | 2 ± 0.83 | 3 ± 1.1 | 4.3 ± 1.5 | vapor or sublimation pressure (516 K, Metastable liquid): 44.3 ± 4.4 kPa; vapor or sublimation pressure (526 K, Metastable liquid): 56 ± 5.6 kPa; vapor or sublimation pressure (536 K, Metastable liquid): 71 ± 7.1 kPa; vapor or sublimation pressure (546 K, Metastable liquid): 89 ± 8.9 kPa
CC1=CC[C@@]23C[C@@H]1C(C)(C)[C@@H]2CC[C@H]3C [alpha-cedrene] | 0.0031 | 0.0081 | 0.017 | 0.035 ± 0.017 | 0.067 ± 0.03 | 0.12 ± 0.051 | 0.22 ± 0.082 | 0.37 ± 0.12 | 0.61 ± 0.17 | 0.99 ± 0.23 | 1.5 ± 0.3 | 2.4 ± 0.38 | 3.5 ± 0.49 | 5.1 ± 0.65 | 7.3 ± 0.89 | vapor or sublimation pressure (533.2 K, Metastable liquid): 101.3 ± 10 kPa
C=C1CC[C@@]23C[C@@H]1C(C)(C)[C@@H]2CC[C@H]3C [beta-cedrene] | 0.0031 | 0.0081 | 0.017 | 0.035 ± 0.017 | 0.067 ± 0.03 | 0.12 ± 0.051 | 0.21 ± 0.081 | 0.37 ± 0.12 | 0.61 ± 0.17 | 0.99 ± 0.23 | 1.5 ± 0.3 | 2.3 ± 0.38 | 3.5 ± 0.49 | 5.1 ± 0.65 | 7.3 ± 0.89 | vapor or sublimation pressure (533.3 K, Metastable liquid): 101.3 ± 10 kPa
